In the supplement of paper PMC13207355:

Columns and labels:
Conditions in all cases: exposure time: 72 h
E31 [1] = patient-derived glioblastoma stem cells of proneural subtype; assay: surviving fraction (nuclei count normalised to DMSO); higher = more cells surviving (less toxic)
E28 [2] = patient-derived glioblastoma stem cells of classical subtype; assay: as above
E21 [3] = patient-derived glioblastoma stem cells of mesenchymal subtype; assay: as above
E13 [4] = patient-derived glioblastoma stem cells of classical subtype; assay: as above
FT3469 [5] = normal neural stem cell line; assay: as above
E34 [6] = patient-derived glioblastoma stem cells of proneural subtype; assay: as above
E57 [7] = patient-derived glioblastoma stem cells of mesenchymal subtype; assay: as above
E31 [8] = assay: phenotypic distance (Euclidean, principal components) from DMSO controls (arbitrary units); higher = stronger morphological change
E28 [9] = assay: as above
E21 [10] = assay: as above
E13 [11] = assay: as above
FT3469 [12] = assay: as above
E34 [13] = assay: as above
E57 [14] = assay: as above
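For phenotypic distance (Euclidean, principal components) from DMSO controls in this document: cell Painting imaging in 384-well plates, CellProfiler features reduced to at least 20 principal components, Euclidean distance versus same-plate DMSO vehicle wells (0.1% v/v), median over six images per well.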
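For surviving fraction (nuclei count normalised to DMSO) in this document: nuclei counted by high-content imaging of Hoechst-stained cells in laminin-coated 384-well plates, relative to 0.1% DMSO vehicle wells, with staurosporine as cell-death control.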

O=[N+]([O-])c1ccc2c(c1)S(=O)(=O)C=C2 [Stattic]
Conditions | phenotypic distance | surviving fraction
E13 [4], 4.11523 nM | – | 0.862
E13 [4], 12.34567901 nM | – | 0.789
E13 [4], 37.037 nM | – | 0.891
E13 [4], 111.1111111 nM | – | 0.753
E13 [4], 333.333 nM | – | 0.472
E13 [4], 1000 nM | – | 0.0609
E13 [4], 3000 nM | – | 0.0209
E13 [11], 4.11523 nM | 0.979 | –
E13 [11], 12.34567901 nM | 0.957 | –
E13 [11], 37.037 nM | 0.849 | –
E13 [11], 111.1111111 nM | 1.68 | –
E13 [11], 333.333 nM | 3.33 | –
E13 [11], 1000 nM | 8.57 | –
E13 [11], 3000 nM | 12.1 | –
E21 [3], 4.11523 nM | – | 0.828
E21 [3], 12.34567901 nM | – | 0.855
E21 [3], 37.037 nM | – | 0.849
E21 [3], 111.1111111 nM | – | 0.728
E21 [3], 333.333 nM | – | 0.517
E21 [3], 1000 nM | – | 0.0242
E21 [3], 3000 nM | – | 0.00527
E21 [10], 4.11523 nM | 1.03 | –
E21 [10], 12.34567901 nM | 1.19 | –
E21 [10], 37.037 nM | 0.697 | –
E21 [10], 111.1111111 nM | 1.45 | –
E21 [10], 333.333 nM | 2.92 | –
E21 [10], 1000 nM | 11.2 | –
E21 [10], 3000 nM | 10.4 | –
E28 [2], 4.11523 nM | – | 1.06
E28 [2], 12.34567901 nM | – | 0.809
E28 [2], 37.037 nM | – | 0.932
E28 [2], 111.1111111 nM | – | 0.745
E28 [2], 333.333 nM | – | 0.566
E28 [2], 1000 nM | – | 0.0457
E28 [2], 3000 nM | – | 0.00486
E28 [9], 4.11523 nM | 0.371 | –
E28 [9], 12.34567901 nM | 0.758 | –
E28 [9], 37.037 nM | 0.541 | –
E28 [9], 111.1111111 nM | 0.984 | –
E28 [9], 333.333 nM | 1.97 | –
E28 [9], 1000 nM | 7.45 | –
E28 [9], 3000 nM | 19.2 | –
E31 [1], 4.11523 nM | – | 0.993
E31 [1], 12.34567901 nM | – | 0.809
E31 [1], 37.037 nM | – | 0.852
E31 [1], 111.1111111 nM | – | 0.608
E31 [1], 333.333 nM | – | 0.395
E31 [1], 1000 nM | – | 0.00296
E31 [1], 3000 nM | – | 0.00296
E31 [8], 4.11523 nM | 0.51 | –
E31 [8], 12.34567901 nM | 0.69 | –
E31 [8], 37.037 nM | 0.645 | –
E31 [8], 111.1111111 nM | 1.51 | –
E31 [8], 333.333 nM | 3.02 | –
E31 [8], 1000 nM | 11.5 | –
E31 [8], 3000 nM | 12.4 | –
E34 [6], 4.11523 nM | – | 0.907
E34 [6], 12.34567901 nM | – | 0.804
E34 [6], 37.037 nM | – | 0.719
E34 [6], 111.1111111 nM | – | 0.708
E34 [6], 333.333 nM | – | 0.568
E34 [6], 1000 nM | – | 0.223
E34 [6], 3000 nM | – | 0.00905
E34 [13], 4.11523 nM | 0.778 | –
E34 [13], 12.34567901 nM | 2.75 | –
E34 [13], 37.037 nM | 1.33 | –
E34 [13], 111.1111111 nM | 1.29 | –
E34 [13], 333.333 nM | 1.83 | –
E34 [13], 1000 nM | 6.7 | –
E34 [13], 3000 nM | 11.7 | –
E57 [7], 4.11523 nM | – | 0.876
E57 [7], 12.34567901 nM | – | 0.843
E57 [7], 37.037 nM | – | 0.926
E57 [7], 111.1111111 nM | – | 0.848
E57 [7], 333.333 nM | – | 0.631
E57 [7], 1000 nM | – | 0.166
E57 [7], 3000 nM | – | 0.0847
E57 [14], 4.11523 nM | 1.16 | –
E57 [14], 12.34567901 nM | 1.21 | –
E57 [14], 37.037 nM | 0.778 | –
E57 [14], 111.1111111 nM | 1.69 | –
E57 [14], 333.333 nM | 2.66 | –
E57 [14], 1000 nM | 6.04 | –
E57 [14], 3000 nM | 6.85 | –
FT3469 [5], 4.11523 nM | – | 0.815
FT3469 [5], 12.34567901 nM | – | 0.831
FT3469 [5], 37.037 nM | – | 0.86
FT3469 [5], 111.1111111 nM | – | 0.73
FT3469 [5], 333.333 nM | – | 0.627
FT3469 [5], 1000 nM | – | 0.263
FT3469 [5], 3000 nM | – | 0.0263
FT3469 [12], 4.11523 nM | 1.08 | –
FT3469 [12], 12.34567901 nM | 1.39 | –
FT3469 [12], 37.037 nM | 0.934 | –
FT3469 [12], 111.1111111 nM | 1.86 | –
FT3469 [12], 333.333 nM | 1.92 | –
FT3469 [12], 1000 nM | 8.18 | –
FT3469 [12], 3000 nM | 12.6 | –

CC1(C)S[C@@H]2[C@H](NC(=O)Cc3ccccc3)C(=O)N2[C@H]1C(=O)O [Benzylpenicillin sodium]
Conditions | phenotypic distance | surviving fraction
E13 [4], 4.1 nM | – | 1.1
E13 [4], 12.3 nM | – | 1.14
E13 [4], 37 nM | – | 1.07
E13 [4], 111.1 nM | – | 1.17
E13 [4], 333.3 nM | – | 1.06
E13 [4], 1000 nM | – | 1.06
E13 [4], 3000 nM | – | 1.08
E13 [11], 4.1 nM | 0.664 | –
E13 [11], 12.3 nM | 1.03 | –
E13 [11], 37 nM | 0.438 | –
E13 [11], 111.1 nM | 0.926 | –
E13 [11], 333.3 nM | 0.678 | –
E13 [11], 1000 nM | 1.04 | –
E13 [11], 3000 nM | 0.985 | –
E21 [3], 4.1 nM | – | 1.06
E21 [3], 12.3 nM | – | 1.11
E21 [3], 37 nM | – | 1.03
E21 [3], 111.1 nM | – | 1.04
E21 [3], 333.3 nM | – | 0.968
E21 [3], 1000 nM | – | 1.14
E21 [3], 3000 nM | – | 0.993
E21 [10], 4.1 nM | 0.889 | –
E21 [10], 12.3 nM | 0.821 | –
E21 [10], 37 nM | 0.791 | –
E21 [10], 111.1 nM | 0.688 | –
E21 [10], 333.3 nM | 4.43 | –
E21 [10], 1000 nM | 1.31 | –
E21 [10], 3000 nM | 0.858 | –
E28 [2], 4.1 nM | – | 1.28
E28 [2], 12.3 nM | – | 1.09
E28 [2], 37 nM | – | 1.38
E28 [2], 111.1 nM | – | 0.946
E28 [2], 333.3 nM | – | 1.14
E28 [2], 1000 nM | – | 1.12
E28 [2], 3000 nM | – | 0.901
E28 [9], 4.1 nM | 0.78 | –
E28 [9], 12.3 nM | 0.57 | –
E28 [9], 37 nM | 0.958 | –
E28 [9], 111.1 nM | 0.61 | –
E28 [9], 333.3 nM | 0.635 | –
E28 [9], 1000 nM | 0.605 | –
E28 [9], 3000 nM | 1.19 | –
E31 [1], 4.1 nM | – | 1.03
E31 [1], 12.3 nM | – | 0.949
E31 [1], 37 nM | – | 1.1
E31 [1], 111.1 nM | – | 1.03
E31 [1], 333.3 nM | – | 1.1
E31 [1], 1000 nM | – | 0.947
E31 [1], 3000 nM | – | 0.879
E31 [8], 4.1 nM | 0.966 | –
E31 [8], 12.3 nM | 0.585 | –
E31 [8], 37 nM | 0.478 | –
E31 [8], 111.1 nM | 0.839 | –
E31 [8], 333.3 nM | 1.16 | –
E31 [8], 1000 nM | 0.685 | –
E31 [8], 3000 nM | 1.21 | –
E34 [6], 4.1 nM | – | 1.11
E34 [6], 12.3 nM | – | 0.981
E34 [6], 37 nM | – | 1.02
E34 [6], 111.1 nM | – | 1.02
E34 [6], 333.3 nM | – | 0.906
E34 [6], 1000 nM | – | 0.865
E34 [6], 3000 nM | – | 0.864
E34 [13], 4.1 nM | 0.752 | –
E34 [13], 12.3 nM | 0.424 | –
E34 [13], 37 nM | 0.561 | –
E34 [13], 111.1 nM | 0.473 | –
E34 [13], 333.3 nM | 0.826 | –
E34 [13], 1000 nM | 0.717 | –
E34 [13], 3000 nM | 1.48 | –
E57 [7], 4.1 nM | – | 1.03
E57 [7], 12.3 nM | – | 0.993
E57 [7], 37 nM | – | 1
E57 [7], 111.1 nM | – | 1.01
E57 [7], 333.3 nM | – | 1.04
E57 [7], 1000 nM | – | 0.87
E57 [7], 3000 nM | – | 0.922
E57 [14], 4.1 nM | 0.898 | –
E57 [14], 12.3 nM | 0.449 | –
E57 [14], 37 nM | 0.995 | –
E57 [14], 111.1 nM | 0.845 | –
E57 [14], 333.3 nM | 1.07 | –
E57 [14], 1000 nM | 0.999 | –
E57 [14], 3000 nM | 1.39 | –
FT3469 [5], 4.1 nM | – | 1.05
FT3469 [5], 12.3 nM | – | 1.29
FT3469 [5], 37 nM | – | 1.05
FT3469 [5], 111.1 nM | – | 1.18
FT3469 [5], 333.3 nM | – | 0.99
FT3469 [5], 1000 nM | – | 1.27
FT3469 [5], 3000 nM | – | 1.12
FT3469 [12], 4.1 nM | 0.569 | –
FT3469 [12], 12.3 nM | 0.961 | –
FT3469 [12], 37 nM | 1.12 | –
FT3469 [12], 111.1 nM | 0.565 | –
FT3469 [12], 333.3 nM | 0.741 | –
FT3469 [12], 1000 nM | 0.951 | –
FT3469 [12], 3000 nM | 1.77 | –
